Numbers after ± are expanded uncertainties.
Assays:
[1] = Crystal; DTA
[2] = Molar enthalpy of transition or fusion; conditions: Crystal; DSC

SMILES | Normal melting temperature [1] | Molar enthalpy of transition or fusion [2]
COc1cccc(/C=N/NC(=O)c2ccncc2)c1O [N'-(2-hydroxy-3-methoxybenzylidene)isonicotinohydrazide] | 236.70 ± 2 °C | 11.9 ± 0.263 kcal/mol
O=C(N/N=C/c1ccccc1O)c1ccncc1 [N'-(2-hydroxybenzylidene)isonicotinohydrazide] | 248.20 ± 2 °C | 10.9 ± 0.239 kcal/mol

From the NIST ThermoML archive (doi:10.1016/j.tca.2016.07.008)
